The text below walks through data of patent publication US20250082659A1, “MANNO-OLIGOSACCHARIDE COMPOSITIONS FOR PATHOGEN CONTROL” (priority 2022, published 2025).

The assay relates to Streptococcus mutans. As to the kind of experiment: Inhibition of Streptococcus mutans by penicillin with or without MOS (Example 12). The conditions noted are these: BHI media.

With penicillin, the “inhibition of S. mutans growth” value came out at 10%.
